PMC6522510 (Nature Communications, 2019)
Each block holds one compound with its values, some of them ahead of it.

Columns and labels:
MV4-11 [1] = experiment: Secondary dose-response HTS, Cell Titer Glo; format: cell-based, human; settings: MV4-11; for EC50: Homo sapiens
CHRF288-11 [2] = experiment: Secondary dose-response HTS, Cell Titer Glo; format: cell-based, human; settings: for EC50: Homo sapiens
CMK [3] = experiment: Secondary dose-response HTS, Cell Titer Glo; format: cell-based, human; settings: CMK; for EC50: Homo sapiens
CMS [4] = experiment: Secondary dose-response HTS, Cell Titer Glo; format: cell-based, human; settings: for EC50: Homo sapiens, HTS
ML2 = experiment: Secondary dose-response HTS, Cell Titer Glo; format: cell-based, human; settings: secondary high-throughput screen, ML-2; for EC50: Homo sapiens, read-out: average effective concentration, ML-2
U937 [5] = experiment: Secondary dose-response HTS, Cell Titer Glo; format: cell-based, human; settings: for EC50: Homo sapiens, U-937
MOLM-13 [6] = experiment: cells; set-up: species or system AML cell lines (8); Secondary HTS, 10-point dose-response in triplicate, Cell Titer Glo viability, four-parameter fit EC50; settings: Homo sapiens, MOLM-13, 72 h, read-out: MOLM-13
CHRF288-11 [7] = experiment: cells; set-up: species or system AML cell lines (8); Secondary HTS, 10-point dose-response in triplicate, Cell Titer Glo viability, four-parameter fit EC50; settings: 72 h, read-out: CHRF288-11
CMK [8] = experiment: cells; set-up: species or system AML cell lines (8); Secondary HTS, 10-point dose-response in triplicate, Cell Titer Glo viability, four-parameter fit EC50; settings: Homo sapiens, CMK, 72 h, read-out: CMK
CMS [9] = experiment: cells; set-up: species or system AML cell lines (8); Secondary HTS, 10-point dose-response in triplicate, Cell Titer Glo viability, four-parameter fit EC50; settings: 72 h, read-out: CMS
M07e = experiment: cells; set-up: species or system AML cell lines (8); Secondary HTS, 10-point dose-response in triplicate, Cell Titer Glo viability, four-parameter fit EC50; settings: M-07e, 72 h, read-out: M07e
U937 [10] = experiment: cells; set-up: species or system AML cell lines (8); Secondary HTS, 10-point dose-response in triplicate, Cell Titer Glo viability, four-parameter fit EC50; settings: Homo sapiens, U-937, 72 h, read-out: U937
MOLM-13 [11] = experiment: Secondary dose-response HTS, Cell Titer Glo; format: cell-based, human; settings: MOLM-13
MV4-11 [12] = experiment: cells; set-up: species or system AML cell lines (8); Secondary HTS, 10-point dose-response in triplicate, Cell Titer Glo viability, four-parameter fit EC50; settings: Homo sapiens, MV4-11, 72 h, read-out: MV4-11
[13] = secondary high-throughput screen
[14] = secondary high-throughput screen, CHRF288-11
[15] = secondary high-throughput screen, CMS
[16] = secondary high-throughput screen, U937
[17] = secondary high-throughput screen, read-out: average effective concentration, MV4-11
[18] = secondary high-throughput screen, U937, read-out: average effective concentration, U937
[19] = Homo sapiens, secondary high-throughput screen, read-out: average effective concentration, MOLM-13
[20] = HTS, secondary high-throughput screen, CHRF288-11, read-out: average effective concentration, CHRF288-11
[21] = read-out: average effective concentration, CMK

Compound: Cc1noc(-c2ccc(-c3ccc(CC(=O)O)cc3)cc2)c1NC(=O)O[C@H](C)c1ccccc1 [AM-095]
- average effective concentration, MV4-11 (MV4-11 [1]; [13]): Inactive
- average effective concentration, CHRF288-11 (CHRF288-11 [2]; [14]): Inactive
- average effective concentration, CMK (CMK [3]; [13]): Inactive
- average effective concentration, CMS (CMS [4]; [15]): Inactive
- average effective concentration, ML-2 (ML2): Inactive
- average effective concentration, U937 (U937 [5]; [16]): Inactive

- EC50 (MV4-11 [1]; [17]): 1 nM
- EC50 (MOLM-13 [6]): > 10000 nM
- EC50 (U937 [10]): > 10000 nM
Compound: CN[C@@H](C)C(=O)N[C@H]1CN(C(=O)CC(C)C)CC[C@H]2CC[C@@H](C(=O)NC(c3ccccc3)c3ccccc3)N2C1=O [AT-406]
- EC50 (ML2): 6600 nM
- EC50 (CHRF288-11 [7]): > 10000 nM
- EC50 (CMK [8]): > 10000 nM
- EC50 (CMS [9]): > 10000 nM
- EC50 (M07e): > 10000 nM

Compound: O=C(O)CC([S-])C(=O)O.[Au+] (centres unmarked) [AUROTHIOMALATE]
- average effective concentration, MOLM-13 (MOLM-13 [11]; [13]): Inactive
- average effective concentration, MV4-11 (MV4-11 [1]; [13]): Inactive
- average effective concentration, CHRF288-11 (CHRF288-11 [2]; [14]): Inactive
- average effective concentration, CMK (CMK [3]; [13]): Inactive
- average effective concentration, CMS (CMS [4]; [15]): Inactive
- average effective concentration, U937 (U937 [5]; [16]): Inactive

Compound: Nc1nccc2c1ncn2C1C=C(CO)C(O)C1O (centres unmarked) [Compound 3-DEAZANEPLANOCIN]
- average effective concentration, MV4-11 (MV4-11 [1]; [13]): Inactive
- average effective concentration, CMS (CMS [4]; [15]): Inactive
- average effective concentration, ML-2 (ML2): Inactive
- average effective concentration, U937 (U937 [5]; [16]): Inactive

Compound: Nc1nc(=O)n([C@H]2C[C@H](O)[C@@H](CO)O2)cc1F [Compound 5-FLUORODEOXYCYTIDINE]
- average effective concentration, MV4-11 (MV4-11 [1]; [13]): Inactive
- average effective concentration, CMS (CMS [4]; [15]): Inactive
- average effective concentration, U937 (U937 [5]; [16]): Inactive

Compound: Cc1ccc(C(=O)Nc2ccc(Oc3cc4cnn(C)c4cc3-c3cn[nH]c3)c(F)c2)c(=O)n1-c1ccc(F)cc1 [LY2801653]
- average effective concentration, MV4-11 (MV4-11 [1]; [13]): Inactive
- average effective concentration, CHRF288-11 (CHRF288-11 [2]; [14]): Inactive
- average effective concentration, CMK (CMK [3]; [13]): Inactive
- average effective concentration, CMS (CMS [4]; [15]): Inactive
- average effective concentration, ML-2 (ML2): Inactive
- average effective concentration, U937 (U937 [5]; [16]): Inactive

- EC50 (U937 [5]; [18]): 2700 nM
Compound: CC1CS(=O)(=O)CCN1/N=C/c1ccc([N+](=O)[O-])o1 (centres unmarked) [NIFURTIMOX]
- EC50 (CMK [3]; secondary high-throughput screen, read-out: average effective concentration, CMK): 2300 nM
- EC50 (CMS [4]; secondary high-throughput screen, CMS, read-out: average effective concentration, CMS): 5000 nM
- EC50 (ML2): 8500 nM

- EC50 (MOLM-13 [11]; Homo sapiens, secondary HTS, 72 h, average of triplicate, read-out: EC50 MOLM-13): 10 nM
- EC50 (MOLM-13 [11]; [19]): 11 nM
- EC50 (MV4-11 [1]; secondary HTS, 72 h, average of triplicate, read-out: EC50 MV4-11): 10 nM
- EC50 (MV4-11 [1]; [17]): 6 nM
- EC50 (U937 [5]; secondary HTS, 72 h, average of triplicate, read-out: EC50 U937): 10 nM
Compound: Cn1cc(CNCC2CCN(c3ncc(C(=O)NO)cn3)CC2)c2ccccc21 [Quisinostat, reference compound]
- EC50 (CHRF288-11 [2]; [20]): 9 nM
- EC50 (CHRF288-11 [2]; secondary HTS, 72 h, average of triplicate, read-out: EC50 CHRF288-11): 10 nM
- EC50 (CMK [3]; 72 h, read-out: EC50 CMK): 20 nM
- EC50 (CMK [3]; [21]): 18 nM
- EC50 (CMS [4]; 72 h, read-out: EC50 CMS): 1 nM

Compound: O=C1c2c(O)ccc(O)c2C(=O)c2c(NCCNCCO)ccc(NCCNCCO)c21 [SJ000285321, MITOXANTHRONE]
- EC50 (MOLM-13 [6]): 8.1 nM
- EC50 (CHRF288-11 [7]): 24 nM
- EC50 (CMK [8]): 43 nM
- EC50 (CMS [9]): 85 nM
- EC50 (M07e): 33 nM
- EC50 (U937 [10]): 26 nM

- EC50 (MOLM-13 [6]): > 10000 nM
- EC50 (MV4-11 [12]): > 10000 nM
- EC50 (U937 [10]): > 10000 nM
Compound: Oc1nc(-c2ccc(C(F)(F)F)cc2)nc2c1CSCC2 [XAV939]
- EC50 (ML2): 2800 nM
- EC50 (CHRF288-11 [7]): > 10000 nM
- EC50 (CMK [8]): > 10000 nM
- EC50 (CMS [9]): > 10000 nM
- EC50 (M07e): > 10000 nM

- EC50 (MOLM-13 [11]; [19]): 10000 nM
- EC50 (U937 [5]; [18]): 10000 nM
- EC50 (MV4-11 [12]): > 10000 nM
Compound: C/C1=C\CC(C)(C)/C=C/C(=O)/C(C)=C/CC1 [ZERUMBONE]
- EC50 (CHRF288-11 [2]; [20]): 8600 nM
- EC50 (CMK [3]; [21]): 7200 nM
- EC50 (CMS [4]; read-out: average effective concentration, CMS): 7300 nM
- EC50 (ML2): 6900 nM
- EC50 (M07e): > 10000 nM

Compound: BLEOMYCIN
- EC50 (MOLM-13 [11]; secondary high-throughput screen, read-out: average effective concentration, MOLM-13): 6900 nM
- average effective concentration, MV4-11 (MV4-11 [1]; [13]): Inactive
- average effective concentration, CMK (CMK [3]; [13]): Inactive
- average effective concentration, CMS (CMS [4]; [15]): Inactive
- average effective concentration, U937 (U937 [5]; [16]): Inactive
